ChEMBL document CHEMBL1157013, “Novel phospholipid analogues of pan-PPAR activator tetradecylthioacetic acid are more PPAR alpha selective” (Bioorg Med Chem Lett, 2010)
The source made the active and inactive calls. The calls are words filed in the database; no cut-off is given here.

What was measured:
Type in all cases: cell-based
[1] = molecular target: T1, Peroxisome proliferator-activated receptor gamma (Homo sapiens) (UniProt P37231); experiment: Activation of PPARgamma expressed in human MCF7 cells at 30 uM by luciferase reporter gene assay
T1 sequence (whole entry): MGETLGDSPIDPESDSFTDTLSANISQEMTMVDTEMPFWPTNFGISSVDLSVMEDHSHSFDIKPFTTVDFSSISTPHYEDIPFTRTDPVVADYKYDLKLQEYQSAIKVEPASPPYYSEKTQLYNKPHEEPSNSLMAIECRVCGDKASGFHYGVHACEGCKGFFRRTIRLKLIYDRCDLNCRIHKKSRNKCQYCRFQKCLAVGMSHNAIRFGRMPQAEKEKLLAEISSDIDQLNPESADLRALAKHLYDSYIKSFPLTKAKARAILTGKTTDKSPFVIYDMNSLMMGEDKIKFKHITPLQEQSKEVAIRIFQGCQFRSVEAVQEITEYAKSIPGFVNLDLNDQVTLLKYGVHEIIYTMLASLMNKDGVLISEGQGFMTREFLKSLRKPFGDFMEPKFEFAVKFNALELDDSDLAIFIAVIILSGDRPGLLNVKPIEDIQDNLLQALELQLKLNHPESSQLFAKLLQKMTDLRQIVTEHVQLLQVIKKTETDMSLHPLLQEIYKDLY

[2] = molecular target: T2, Peroxisome proliferator-activated receptor alpha (Homo sapiens) (UniProt Q07869); experiment: Activation of PPARalpha expressed in human MCF7 cells at 30 uM by luciferase reporter gene assay
T2 sequence (whole entry): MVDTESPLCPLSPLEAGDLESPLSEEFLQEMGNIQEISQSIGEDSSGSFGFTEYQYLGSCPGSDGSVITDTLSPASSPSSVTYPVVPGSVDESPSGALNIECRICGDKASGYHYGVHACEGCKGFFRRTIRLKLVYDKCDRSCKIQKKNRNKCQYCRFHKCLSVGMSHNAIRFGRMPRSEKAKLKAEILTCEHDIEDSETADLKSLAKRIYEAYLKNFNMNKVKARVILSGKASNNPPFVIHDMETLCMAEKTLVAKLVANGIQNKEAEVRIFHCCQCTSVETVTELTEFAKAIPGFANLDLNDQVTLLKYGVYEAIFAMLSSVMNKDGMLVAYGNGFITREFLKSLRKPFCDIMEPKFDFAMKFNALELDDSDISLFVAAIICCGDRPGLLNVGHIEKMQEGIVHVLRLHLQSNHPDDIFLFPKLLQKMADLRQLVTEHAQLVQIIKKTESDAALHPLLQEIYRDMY

[3] = molecular target: T3, Peroxisome proliferator-activated receptor delta (Homo sapiens) (UniProt Q03181); experiment: Activation of PPARdelta expressed in human MCF7 cells at 30 uM by luciferase reporter gene assay
T3 sequence (whole entry): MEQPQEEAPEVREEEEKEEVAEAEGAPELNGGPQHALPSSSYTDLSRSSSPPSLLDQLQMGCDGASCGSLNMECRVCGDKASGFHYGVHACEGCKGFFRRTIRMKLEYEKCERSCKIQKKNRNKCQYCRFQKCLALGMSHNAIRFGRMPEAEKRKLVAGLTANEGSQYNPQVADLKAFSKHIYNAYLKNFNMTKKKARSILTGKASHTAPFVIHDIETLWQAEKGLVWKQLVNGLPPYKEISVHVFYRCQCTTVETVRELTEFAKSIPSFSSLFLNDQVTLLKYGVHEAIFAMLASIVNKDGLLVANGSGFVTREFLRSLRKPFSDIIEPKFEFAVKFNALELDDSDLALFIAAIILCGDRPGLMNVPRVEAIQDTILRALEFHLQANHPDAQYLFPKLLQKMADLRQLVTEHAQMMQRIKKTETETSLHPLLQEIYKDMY

[4] = molecular target: T1, Peroxisome proliferator-activated receptor gamma (Homo sapiens); experiment: Activation of PPARgamma expressed in human MCF7 cells at 10 uM by luciferase reporter gene assay
[5] = molecular target: T2, Peroxisome proliferator-activated receptor alpha (Homo sapiens); experiment: Activation of PPARalpha expressed in human MCF7 cells at 10 uM by luciferase reporter gene assay
[6] = molecular target: T3, Peroxisome proliferator-activated receptor delta (Homo sapiens); experiment: Activation of PPARdelta expressed in human MCF7 cells at 10 uM by luciferase reporter gene assay

Row | Activity [1] | Activity [2] | Activity [3] | Activity [4] | Activity [5] | Activity [6] | Compound
1 | Active | Active | Active | – | – | – | CCCCCCCCCCCCCCSCC(=O)O
2 | Active | Active | Active | Active | Active | Active | CCCCCCCCCCCCCCSCC(=O)OC[C@H](COP(=O)(O)OCC(O)CO)OC(=O)CSCCCCCCCCCCCCCC (stereo not given in full)
3 | Active | Active | Active | Active | Active | Active | CCCCCCCCCCCCCCSCC(=O)OC[C@@H](O)COP(=O)([O-])OCC[N+](C)(C)C
